# Measurements: US12157730B2, “Heteroaryl derivative, method for producing same, and pharmaceutical composition comprising same as effective component” (VORONOI INC., priority 2019, dated 2024)
# Molecular target: T1, Ba/F3 cell EGFR Exon20 ins NPH (Homo sapiens, UniProt P00533, INS773NPH)
# T1 construct: expressed in transfected cells; host or cells: Ba/F3
# Test: Ba/F3 cell proliferation suppression, EGFR Exon20 ins NPH
# Type: cell-based
# Conditions: GI50 class; Ba/F3 cell line with NPH inserted at Exon20 of EGFR; 72 hours
# Summary of the method: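 72 h compound exposure, 0.3 nM–50 um (12 points, 3:1 dilution in DMSO); viability by CellTiter-Glo luminescence. Ba/F3 medium: RPMI-1640, 10% FBS, 5 ng/ml IL-3, 1 ug/ml puromycin for transduced cells. GI50 vs control, n=3.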
row,Ba/F3 (NPH) Activity,SMILES
1,A (GI50 < 50 nM),"C=CC(=O)Nc1cc(Nc2cc(N3OCC[C@@H]3c3cc(F)ccc3F)ncn2)c(OC)cc1N1CCC(N2CCN(C)[C@@H](C)C2)CC1 [compound 850, N-(5-((6-((R)-3-(2,5-difluorophenyl)isoxazolidine-2-yl)pyrimidine-4-yl)amino)-2-(4-((S)-3,4-dimethylpiperazine-1-yl)piperidine-1-yl)-4-methoxyphenyl) acrylamide]"
2,B (50 nM ≤ GI50 < 500 nM),"C=CC(=O)Nc1cc(Nc2cc(N3OCC[C@@H]3c3cccc(OC)c3)ncn2)c(OC)cc1N1CCN(C2COC2)CC1 [compound 730, N-(4-methoxy-5-((6-((R)-3-(3-methoxyphenyl)isoxazolidine-2-yl)pyrimidine-4-yl)amino)-2-(4-(oxetane-3-yl)piperazine-1-yl)phenyl) acrylamide]"
3,A (GI50 < 50 nM),"C=CC(=O)Nc1cc(Nc2cc(N3OCC[C@@H]3Cc3cccc(Cl)c3Cl)ncn2)c(OC)cc1N1CCC(N2CCO[C@@H](C)C2)CC1 [compound 1013, N-(5-((6-((S)-3-(2,3-dichlorobenzyl)isoxazolidine-2-yl)pyrimidine-4-yl)amino)-4-methoxy-2-(4-((S)-2-methylmorpholino)piperidine-1-yl)phenyl) acrylamide]"
4,A (GI50 < 50 nM),"C=CC(=O)Nc1cc(Nc2cc(N3OCC[C@@H]3Cc3cccc(Cl)c3C)ncn2)c(OC)cc1N1CCC(N2CCN(C3CC3)[C@H](C)C2)CC1 [compound 1027, N-(5-((6-((S)-3-(3-chloro-2-methylbenzyl)isoxazolidine-2-yl)pyrimidine-4-yl)amino)-2-(4-((R)-4-cyclopropyl-3-methylpiperazine-1-yl)piperidine-1-yl)-4-methoxyphenyl) acrylamide]"
5,A (GI50 < 50 nM),"C=CC(=O)Nc1cc(Nc2cc(N3OCC[C@@H]3c3cccc(F)c3)ncn2)c(OC)cc1N1CCN(C2CC2)CC1 [compound 830, N-(2-(4-cyclopropylpiperazine-1-yl)-5-((6-((R)-3-(3-fluorophenyl)isoxazolidine-2-yl)pyrimidine-4-yl)amino)-4-methoxyphenyl) acrylamide]"
6,A (GI50 < 50 nM),"C=CC(=O)Nc1cc(Nc2cc(N3OCC[C@@H]3Cc3cccc(Cl)c3F)ncn2)c(OC)cc1N1CCC(N2CCN(C3CC3)CC2)CC1 [compound 1020, N-(5-((6-((S)-3-(3-chloro-2-fluorobenzyl)isoxazolidine-2-yl)pyrimidine-4-yl)amino)-2-(4-(4-cyclopropylpiperazine-1-yl)piperidine-1-yl)-4-methoxyphenyl) acrylamide]"
7,A (GI50 < 50 nM),"C=CC(=O)Nc1cc(Nc2cc(N3OCC[C@@H]3c3cccc(C(F)(F)F)c3)ncn2)c(OC)cc1N1CCC(N2CCN(C3CC3)[C@@H](C)C2)CC1 [compound 941, N-(2-(4-((S)-4-cyclopropyl-3-methylpiperazine-1-yl)piperidine-1-yl)-4-methoxy-5-((6-((R)-3-(3-(trifluoromethyl)phenyl)isoxazolidine-2-yl)pyrimidine-4-yl)amino)phenyl) acrylamide]"
8,A (GI50 < 50 nM),"C=CC(=O)Nc1cc(Nc2cc(N3OCC[C@@H]3Cc3ccccc3)ncn2)c(OC)cc1N1CCN(C)CC1 [compound 945, N-(5-((6-((S)-3-benzylisoxazolidine-2-yl)pyrimidine-4-yl)amino)-4-methoxy-2-(4-methylpiperazine-1-yl)phenyl)acrylamide]"
9,A (GI50 < 50 nM),"C=CC(=O)Nc1cc(Nc2cc(N3OCC[C@@H]3Cc3ccccc3)ncn2)c(OC)cc1N1CCC(N(C)C)CC1 [compound 951, N-(5-((6-((S)-3-benzylisoxazolidine-2-yl)pyrimidine-4-yl)amino)-2-(4-(dimethylamino)piperidine-1-yl)-4-methoxyphenyl) acrylamide]"
10,A (GI50 < 50 nM),"C=CC(=O)Nc1cc(Nc2cc(N3OCC[C@@H]3c3cc(F)cc(F)c3)ncn2)c(OC)cc1N1CCC(N2CCO[C@@H](C)C2)CC1 [compound 757, N-(5-((6-((R)-3-(3,5-difluorophenyl)isoxazolidine-2-yl)pyrimidine-4-yl)amino)-4-methoxy-2-(4-((S)-2-methylmorpholino)piperidine-1-yl)phenyl) acrylamide]"

# Continued, compound first:
row,SMILES,Ba/F3 (NPH) Activity
1,"C=CC(=O)Nc1cc(Nc2cc(N3OCC[C@@H]3c3c(F)ccc(F)c3F)ncn2)c(OC)cc1N1CCC(N2C[C@@H]3C[C@H]2CO3)CC1 [compound 642, N-(2-(4-((1S,4S)-2-oxa-5-azabicyclo[2.2.1]heptane-5-yl)piperidine-1-yl)-4-methoxy-5-((6-((R)-3-(2,3,6-trifluorophenyl)isoxazolidine-2-yl)pyrimidine-4-yl)amino)phenyl)acrylamide]",A (GI50 < 50 nM)
2,"C=CC(=O)Nc1cc(Nc2cc(N3OCC[C@@H]3c3ccc(F)c(Cl)c3)ncn2)c(OC)cc1N1CCC(N2CCN(CC)CC2)CC1 [Example 263, N-(5-((6-((R)-3-(3-chloro-4-fluorophenyl)isoxazolidine-2-yl)pyrimidine-4-yl)amino)-2-(4-(4-ethylpiperazine-1-yl)piperidine-1-yl)-4-methoxyphenyl) acrylamide]",A (GI50 < 50 nM)
3,"C=CC(=O)Nc1cc(Nc2cc(N3OCC[C@@H]3c3ccc(F)cc3F)ncn2)c(OC)cc1N1CCN(C2COC2)CC1 [compound 383, N-(5-((6-((R)-3-(2,4-difluorophenyl)isoxazolidine-2-yl)pyrimidine-4-yl)amino)-4-methoxy-2-(4-(oxetane-3-yl)piperazine-1-yl)phenyl)acrylamide]",A (GI50 < 50 nM)
4,"C=CC(=O)Nc1cc(Nc2cc(N3OCC[C@@H]3c3ccc(F)cc3F)ncn2)c(OC)cc1N1CCN(C)CC1 [compound 326, N-(5-((6-((R)-3-(2,4-difluorophenyl)isoxazolidine-2-yl)pyrimidine-4-yl)amino)-4-methoxy-2-(4-methylpiperazine-1-yl)phenyl)acrylamide]",A (GI50 < 50 nM)
5,"C=CC(=O)Nc1cc(Nc2cc(N3OCC[C@@H]3c3ccc(F)c(F)c3)ncn2)c(OC)cc1N1CCN(C)CC1 [compound 458, N-(5-((6-((R)-3-(3,4-difluorophenyl)isoxazolidine-2-yl)pyrimidine-4-yl)amino)-4-methoxy-2-(4-methylpiperazine-1-yl)phenyl)acrylamide]",A (GI50 < 50 nM)
6,"C=CC(=O)Nc1cc(Nc2cc(N3OCC[C@@H]3c3cccc(Cl)c3F)ncn2)c(OC)cc1N1CCC(N2C[C@@H](C)N(C3CC3)C[C@H]2C)CC1 [Example 122, N-(5-((6-((R)-3-(3-chloro-2-fluorophenyl)isoxazolidine-2-yl)pyrimidine-4-yl)amino)-2-(4-((2R,5R)-4-cyclopropyl-2,5-dimethylpiperazine-1-yl)piperidine-1-yl)-4-methoxyphenyl) acrylamide]",A (GI50 < 50 nM)
7,"C=CC(=O)Nc1cc(Nc2cc(N3OCC[C@@H]3c3ccc(Cl)cc3F)ncn2)c(OC)cc1N1CCC(N2CC[C@@H](N(C)C)C2)CC1 [compound 404, N-(5-((6-((R)-3-(4-chloro-2-fluorophenyl)isoxazolidine-2-yl)pyrimidine-4-yl)amino)-2-(4-((R)-3-(dimethylamino)pyrolidine-1-yl)piperidine-1-yl)-4-methoxyphenyl) acrylamide]",B (50 nM ≤ GI50 < 500 nM)
8,"C=CC(=O)Nc1cc(Nc2cc(N3OCC[C@@H]3c3c(F)cccc3F)ncn2)c(OC)cc1N1CCC(N2CCN(C3CC3)[C@@H](C)C2)CC1 [Example 136, N-(2-(4-((S)-4-cyclopropyl-3-methylpiperazine-1-yl)piperidine-1-yl)-5-((6-((R)-3-(2,6-difluorophenyl)isoxazolidine-2-yl)pyrimidine-4-yl)amino)-4-methoxyphenyl) acrylamide]",B (50 nM ≤ GI50 < 500 nM)
9,"C=CC(=O)Nc1cc(Nc2cc(N3OCC[C@@H]3c3cccc(Cl)c3Cl)ncn2)c(OC)cc1N1C[C@@H]2C[C@H]1CO2 [compound 522, N-(2-((1S,4S)-2-oxa-5-azabicyclo[2.2.1]heptane-5-yl)-5-((6-((R)-3-(2,3-dichlorophenyl)isoxazolidine-2-yl)pyrimidine-4-yl)amino)-4-methoxyphenyl) acrylamide]",B (50 nM ≤ GI50 < 500 nM)
10,"C=CC(=O)Nc1cc(Nc2cc(N3OCC[C@@H]3c3ccc(F)c(Cl)c3)ncn2)c(OC)cc1N1CCC(N2C[C@@H]3C[C@H]2CO3)CC1 [compound 716, N-(2-(4-((1S,4S)-2-oxa-5-azabicyclo[2.2.1]heptane-5-yl)piperidine-1-yl)-5-((6-((R)-3-(3-chloro-4-fluorophenyl)isoxazolidine-2-yl)pyrimidine-4-yl)amino)-4-methoxyphenyl) acrylamide]",A (GI50 < 50 nM)
11,"C=CC(=O)Nc1cc(Nc2cc(N3OCC[C@@H]3c3ccc(C)nc3)ncn2)c(OC)cc1N1CCN(CCN(C)C)CC1 [Example 219, N-(2-(4-(2-(dimethylamino)ethyl)piperazine-1-yl)-4-methoxy-5-((6-((R)-3-(6-methylpyridine-3-yl)isoxazolidine-2-yl)pyrimidine-4-yl)amino)phenyl)acrylamide]",B (50 nM ≤ GI50 < 500 nM)
12,"C=CC(=O)Nc1cc(Nc2cc(N3OCC[C@@H]3c3cc(F)cc(F)c3)ncn2)c(OC)cc1N1CCC(N2CCN(C3COC3)CC2)CC1 [Example 79, N-(5-((6-((R)-3-(3,5-difluorophenyl)isoxazolidine-2-yl)pyrimidine-4-yl)amino)-4-methoxy-2-(4-(4-(oxetane-3-yl)piperazine-1-yl)piperidine-1-yl)phenyl)acrylamide]",A (GI50 < 50 nM)
13,"C=CC(=O)Nc1cc(Nc2cc(N3OCC[C@@H]3c3cccc(C#N)c3)ncn2)c(OC)cc1N1CCC(N2CC[C@@H](N(C)C)C2)CC1 [compound 492, N-(5-((6-((R)-3-(3-cyanophenyl)isoxazolidine-2-yl)pyrimidine-4-yl)amino)-2-(4-((R)-3-(dimethylamino)pyrolidine-1-yl)piperidine-1-yl)-4-methoxyphenyl) acrylamide]",B (50 nM ≤ GI50 < 500 nM)
